Legend:
5-HT2A receptor = biological target: T1, 5-HT2A receptor (Homo sapiens, UniProt P28223); experiment: Eurofins selectivity panel, radioligand competition binding at 10 μM
T1 construct: Eurofins (contract study)
Protocol: (§1) The inhibitory potential of Compound 1 was tested against 38 diverse non-kinase enzymes and 55 receptors, ion channels and neurotransmitter transporters in radioligand competition binding assays using mostly human recombinant proteins. […] Compound 1 was also tested against an additional panel of 468 protein kinases. Studies were performed at Eurofins (Luxembourg City, Luxembourg) using their published assay formats.

human A1 receptor = biological target: T2, human A1 receptor (Homo sapiens, UniProt P30542); experiment: as above
T2 construct: Eurofins (contract study)
T2 sequence (P30542 whole entry): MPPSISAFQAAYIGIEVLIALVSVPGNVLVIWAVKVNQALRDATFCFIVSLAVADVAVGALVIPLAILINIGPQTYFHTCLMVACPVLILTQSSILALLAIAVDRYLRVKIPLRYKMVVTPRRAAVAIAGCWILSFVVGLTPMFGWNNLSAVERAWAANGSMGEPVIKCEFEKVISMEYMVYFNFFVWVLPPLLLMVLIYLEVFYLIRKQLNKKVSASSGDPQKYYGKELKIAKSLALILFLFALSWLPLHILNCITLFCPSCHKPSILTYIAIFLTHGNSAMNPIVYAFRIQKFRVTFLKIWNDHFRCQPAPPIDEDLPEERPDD
Protocol: as §1

HCC1954 cells = experiment: 6-day growth assay, Compound 1 in combination with exatecan; type: cell-based; settings: Homo sapiens
Protocol: (§2) The activity of Compound 1 in combination with exatecan was evaluated in the HCC1954, HCC1806, and GP2D cancer cell lines in a 6-day growth assay. HCC1954 (Cat #CRL-2338) and HCC1806 (Cat #CRL-2335) cells were obtained from American Type Culture Collection (ATCC) and maintained in ATCC modified RPMI (Cat #30-2001)+10% FBS (Cat #A3160502)+1% penicillin/streptomycin (Cat #15140-122) in a humidified incubator at 37° C., 5% CO2. GP2D cells were obtained from ECACC (Cat #95090714-1VL) and maintained in DMEM+GlutaMAX (Cat #10566-016)+10% FBS (Cat #A3160502)+1% penicillin/streptomycin (Cat #15140-122). Cells were seeded at 2,500 cells/well (HCC1954 and GP2D) or 2,000 cells/well (HCC1806) in 100 μL of growth medium in a 96-well plate (Corning costar Cat #3603) and allowed to adhere overnight at 37° C. with 5% CO2. The next day, serial dilutions of Compound 1 and exatecan were prepared and added to the corresponding wells of a 96-well plate. A solution of 0.1% DMSO in medium was used as the negative control. Cells were incubated with compound for 6 days at 37° C. with 5% CO2, then fixed, stained, and counted as described in Example 3. Concentration response-curves and IC50 values were generated by non-linear regression analysis using a 4-parameter variable slope fit in GraphPad Prism 10 software. Potential synergy between Compound 1 and exatecan was assessed using Zero interaction potency (ZIP), Highest Single Agent (HSA), Bliss, and Loewe synergy models to find the most synergistic area score, where scores >10 indicate that the interaction between the two drugs is likely to be synergistic (Ianevski et al. 2020).

HCC1806 cells = experiment: as above; type: cell-based; settings: Homo sapiens
Protocol: as §2

T1 sequence (P28223 whole entry): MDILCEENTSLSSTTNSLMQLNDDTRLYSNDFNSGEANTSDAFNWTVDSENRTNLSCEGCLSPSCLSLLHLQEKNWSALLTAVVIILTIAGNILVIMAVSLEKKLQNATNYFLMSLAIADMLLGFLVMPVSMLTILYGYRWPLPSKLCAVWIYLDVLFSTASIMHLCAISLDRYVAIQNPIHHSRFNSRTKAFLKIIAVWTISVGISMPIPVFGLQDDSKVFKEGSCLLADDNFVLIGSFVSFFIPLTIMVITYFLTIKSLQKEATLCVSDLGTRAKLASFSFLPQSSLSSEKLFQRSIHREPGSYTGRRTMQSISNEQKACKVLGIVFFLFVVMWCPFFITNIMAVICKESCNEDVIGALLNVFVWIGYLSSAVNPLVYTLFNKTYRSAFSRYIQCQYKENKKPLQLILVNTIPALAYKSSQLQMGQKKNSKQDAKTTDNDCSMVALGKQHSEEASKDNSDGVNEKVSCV

[2H]C([2H])(c1cnn(C)c1)N1C(=O)c2cc(S(=O)(=O)NC3(C)CC3)ccc2N2C1=NC[C@H]2C [Compound 1, (R)-1-methyl-4-((1-methyl-1H-pyrazol-4-yl)methyl-d2)-N-(1-methylcyclopropyl)-5-oxo-1,2,4,5-tetrahydroimidazo[1,2-a]quinazoline-7-sulfonamide]
inhibition at 10 µM (5-HT2A receptor): 64% | inhibition at 10 µM (human A1 receptor): 67% | IC50 (HCC1954 cells; exatecan 0.001 nM): 6900 nM | IC50 (HCC1954 cells; exatecan 0.01 nM): 7200 nM | IC50 (HCC1954 cells; exatecan 0.03 nM): 6600 nM | IC50 (HCC1954 cells; exatecan 0.1 nM): 5200 nM | IC50 (HCC1954 cells; exatecan 0.3 nM): 900 nM | IC50 (HCC1806 cells; exatecan 0.001 nM): 1900 nM | IC50 (HCC1806 cells; exatecan 0.01 nM): 1500 nM | IC50 (HCC1806 cells; exatecan 0.03 nM): 1200 nM | IC50 (HCC1806 cells; exatecan 0.1 nM): 300 nM
